Read-outs that look alike come from different tables or passages of the source.
How the values were obtained:
female white mice = experiment: animal or person; conditions: Mus musculus, po, oral, mice
Description: (§1) Groups of five Carworth CF1 S female mice, 16-20 g each, were fasted 16-22 hours before use. The mice were put in opaque plastic "shoe-box" cages 15-30 min. before injection, and then treated orally with 4, 12, 36, 108 and 324 mg/kg of the compound to be tested as a 13 mg/ml solution in 1% aqueous distilled water solution of methylcellulose (Methocel®). Each dose was given in a standard volume of 0.45 ml. Observations were made at 0.5, 2 and 24 hours after dosing. ED50 values were calculated for each parameter including death (LD50). The ED50 and LD50 values are the doses at which 50% of the naimals would be expected to respond.
(§2) The mouse is placed on a stainless steel wire mesh screen (8 × 12 inches, 3 mesh per inch, 1/4 inch mesh openings) "shoe-box" lid (1 inch high) and is observed for normal activities, such as nose movements, head movements with apparent visual examination of the area, and/or walking around on the screen. Absence of or marked depression of these activities for 5 seconds constitutes loss of exploratory activity.
(§3) The mouse is picked up by the tail and placed on the screen with its head facing the observer. Bilateral eyelid closure of 50% or more two seconds after placement is considered ptosis.
(§4) The mouse is placed with its front paws on the edge of a stainless steel "shoe-box" cover, 1 inch high, covered with adhesive tape. Failure to remove both paws from the cover's edge within 5 seconds constitutes catatonia.
(§5) The observer gently strokes the abdominal musculature of the mouse with thumb and forefinger. Flaccidity (or rarely, tenseness) is recorded.
(§6) The mouse is gently swung by the tail toward a horizontal 12 gauge wire tautly stretched 25 cm above the bench. After the mouse grasps the wire with its forepaws, its posterior end is held directly below the wire. A normal mouse grasps the wire with its forepaws and immediately lifts its hind limbs to the wire. Failure to grasp the wire with the forepaws in both trials constitutes loss of the grip reflex; failure to lift the hind limbs to grasp the wire with at least one hind paw within 5 seconds constitutes loss of the lift reflex.
(§7) The mouse is placed on the bar 10-20 cm horizontally and 9 cm vertically from a Galton whistle adjusted for 13 kc (5 mm on the whistle scale) and is subjected to several short bursts of sound.
(§8) An effective tranquilizer should induce little or no tremor response. […] Tremors include fine or coarse and intermittent or continuous tremors.

in vivo = conditions: mouse, in vivo, po
Description: as §1, §2, §3, §4, §5, §6, §7, §8

[1] = tested on: phenylquinone-induced writhing; experiment: Phenylquinone writhing test (analgesia); type: in vivo, mouse (Carworth CF1 S female); conditions: Mus musculus
Description: This mouse test is predictive of analgesic response in humans. [E. Siegmund, R. Cadmus and G. Lee, Proc. Soc.
ED50 values were obtained graphically from the data.

[2] = read-out: Catatonia ED50, Table 1
[3] = read-out: Exploratory Loss Visual ED50, Table 1
[4] = read-out: Muscle Tone ED50, Table 1
[5] = read-out: Reflexes Grip ED50, Table 1
[6] = read-out: Reflexes Lift ED50, Table 1
[7] = read-out: Reflexes Pinna ED50, Table 1

c1ccc2c(c1)[C@@H]1C[C@@]3(CN(C[C@H]4C[C@H]5CC[C@@H]4C5)C[C@H]23)c2ccccc21 (relative stereo) [Example 36, 2-(2-Endo-bicyclo[2.2.1]heptylmethyl)-2,3,8,12b-tetrahydro-1H-3a,8-methanodibenzo[3,4:6,7]cyclohepta[1,2-c]pyrrole]
ED50 (female white mice; [2]): 60 mg/kg | ED50 (female white mice; [3]): 60 mg/kg | ED50 (female white mice; [4]): 60 mg/kg | ED50 (female white mice; read-out: Ptosis ED50, Table 1): 20 mg/kg | ED50 (female white mice; [5]): > 324 mg/kg | ED50 (female white mice; [6]): 60 mg/kg | ED50 (female white mice; [7]): 100 mg/kg | ED50 (in vivo): > 324 mg/kg | LD50 at 24 h (in vivo): > 324 mg/kg | ED50 ([1]; po, Table 1, mice): 9.8 mg/kg

C1=C[C@@H]2C[C@H]1C[C@H]2CN1C[C@@H]2c3ccccc3[C@@H]3C[C@@]2(C1)c1ccccc13 (relative stereo) [Example 37, 2-(2-Exo-bicyclo[2.2.1]hept-5-enylmethyl)-2,3,8,12b-tetrahydro-1H-3a,8-methanodibenzo[3,4:6,7]cyclohepta[1,2-c]pyrrole]
ED50 (female white mice; [2]): 7 mg/kg | ED50 (female white mice; [3]): 7 mg/kg | ED50 (female white mice; [4]): 4 mg/kg | ED50 (female white mice; read-out: Ptosis ED50, Table 1): ≤ 4 mg/kg | ED50 (female white mice; [5]): 200 mg/kg | ED50 (female white mice; [6]): 12 mg/kg | ED50 (female white mice; [7]): 20 mg/kg | ED50 (in vivo): > 324 mg/kg | LD50 at 24 h (in vivo): 300 mg/kg | ED50 ([1]; po, Table 1, mice): 2.4 mg/kg

C1=C[C@@H]2C[C@H]1C[C@@H]2CN1C[C@@H]2c3ccccc3[C@@H]3C[C@@]2(C1)c1ccccc13 (relative stereo) [Example 38, 2-(2-Endo-bicyclo[2.2.1]hept-5-enylmethyl)-2,3,8,12b-tetrahydro-1H-3a,8-methanodibenzo[3,4:6,7]cyclohepta[1,2-c]pyrrole]
ED50 (female white mice; [2]): 100 mg/kg | ED50 (female white mice; [3]): 200 mg/kg | ED50 (female white mice; [4]): 200 mg/kg | ED50 (female white mice; read-out: Ptosis ED50, Table 1): 60 mg/kg | ED50 (female white mice; [5]): > 324 mg/kg | ED50 (female white mice; [6]): 200 mg/kg | ED50 (female white mice; [7]): > 324 mg/kg | ED50 (in vivo): > 324 mg/kg | LD50 at 24 h (in vivo): > 324 mg/kg | ED50 ([1]; po, Table 1, mice): 31 mg/kg

c1ccc(CCN2C[C@@H]3c4ccccc4[C@@H]4C[C@@]3(C2)c2ccccc24)cc1 (relative stereo) [Example 39, 2-(2-Phenylethyl)-2,3,8,12b-tetrahydro-1H-3a,8-methanodibenzo[3,4:6,7]cyclohepta[1,2-c]pyrrole]
ED50 (female white mice; [2]): 100 mg/kg | ED50 (female white mice; [3]): 200 mg/kg | ED50 (female white mice; [4]): > 324 mg/kg | ED50 (female white mice; read-out: Ptosis ED50, Table 1): 200 mg/kg | ED50 (female white mice; [5]): > 324 mg/kg | ED50 (female white mice; [6]): 100 mg/kg | ED50 (female white mice; [7]): 100 mg/kg | ED50 (in vivo): 300 mg/kg | LD50 at 24 h (in vivo): > 324 mg/kg | ED50 ([1]; po, Table 1, mice): 22 mg/kg

c1ccc(OCCN2C[C@@H]3c4ccccc4[C@@H]4C[C@@]3(C2)c2ccccc24)cc1 (relative stereo) [Example 40, 2-(2-Phenoxyethyl)-2,3,8,12b-tetrahydro-1H-3a,8-methanodibenzo[3,4:6,7]cyclohepta[1,2-c]pyrrole]
ED50 (female white mice; [2]): 12 mg/kg | ED50 (female white mice; [3]): 60 mg/kg | ED50 (female white mice; [4]): 20 mg/kg | ED50 (female white mice; read-out: Ptosis ED50, Table 1): 7 mg/kg | ED50 (female white mice; [5]): > 324 mg/kg | ED50 (female white mice; [6]): 20 mg/kg | ED50 (female white mice; [7]): 12 mg/kg | ED50 (in vivo): > 324 mg/kg | LD50 at 24 h (in vivo): > 324 mg/kg | ED50 ([1]; po, Table 1, mice): 5.3 mg/kg

COCCN1C[C@@H]2c3ccccc3[C@@H]3C[C@@]2(C1)c1ccccc13 (relative stereo) [Example 41, 2-(2-Methoxyethyl)-2,3,8,12b-tetrahydro-1H-3a,8-methanodibenzo[3,4:6,7]cyclohepta[1,2-c]pyrrole]
ED50 (female white mice; [2]): 20 mg/kg | ED50 (female white mice; [3]): 20 mg/kg | ED50 (female white mice; [4]): 36 mg/kg | ED50 (female white mice; read-out: Ptosis ED50, Table 1): 20 mg/kg | ED50 (female white mice; [5]): 200 mg/kg | ED50 (female white mice; [6]): 36 mg/kg | ED50 (female white mice; [7]): 20 mg/kg | ED50 (in vivo): > 324 mg/kg | LD50 at 24 h (in vivo): 300 mg/kg | ED50 ([1]; po, Table 1, mice): 4.2 mg/kg

c1coc(CN2C[C@@H]3c4ccccc4[C@@H]4C[C@@]3(C2)c2ccccc24)c1 (relative stereo) [Example 42, 2-(2-Furylmethyl)-2,3,8,12b-tetrahydro-1H-3a,8-methanodibenzo[3,4:6,7]cyclohepta[1,2-c]pyrrole]
ED50 (female white mice; [2]): 36 mg/kg | ED50 (female white mice; [3]): 60 mg/kg | ED50 (female white mice; [4]): 20 mg/kg | ED50 (female white mice; read-out: Ptosis ED50, Table 1): 20 mg/kg | ED50 (female white mice; [5]): > 324 mg/kg | ED50 (female white mice; [6]): 200 mg/kg | ED50 (female white mice; [7]): 60 mg/kg | ED50 (in vivo): > 324 mg/kg | LD50 at 24 h (in vivo): 300 mg/kg | ED50 ([1]; po, Table 1, mice): 26 mg/kg

c1ccc2c(c1)[C@@H]1C[C@@]3(CN(C4CC4)C[C@H]23)c2ccccc21 (relative stereo) [Example 46, 2-Cyclopropyl-2,3,8,12b-tetrahydro-1H-3a,8-methanodibenzo[3,4:6,7]cyclohepta[1,2-c]pyrrole]
ED50 (female white mice; [2]): 200 mg/kg | ED50 (female white mice; [3]): 200 mg/kg | ED50 (female white mice; [4]): 200 mg/kg | ED50 (female white mice; read-out: Ptosis ED50, Table 1): 60 mg/kg | ED50 (female white mice; [5]): 300 mg/kg | ED50 (female white mice; [6]): 200 mg/kg | ED50 (female white mice; [7]): 300 mg/kg | LD50 at 24 h (in vivo): > 324 mg/kg | ED50 (in vivo; Tremors ED50, Table 1, mice): > 324 mg/kg | ED50 ([1]; Table 1, oral, mice): 90 mg/kg

c1ccc2c(c1)[C@@H]1C[C@@]3(CN(C4CCC4)C[C@H]23)c2ccccc21 (relative stereo) [Example 47, 2-Cyclobutyl-2,3,8,12b-tetrahydro-1H-3a,8-methanodibenzo[3,4:6,7]cyclohepta[1,2-c]pyrrole]
ED50 (female white mice; [2]): 60 mg/kg | ED50 (female white mice; [3]): 60 mg/kg | ED50 (female white mice; [4]): 60 mg/kg | ED50 (female white mice; read-out: Ptosis ED50, Table 1): 36 mg/kg | ED50 (female white mice; [5]): 200 mg/kg | ED50 (female white mice; [6]): 60 mg/kg | ED50 (female white mice; [7]): 36 mg/kg | LD50 at 24 h (in vivo): > 324 mg/kg | ED50 (in vivo; Tremors ED50, Table 1, mice): > 324 mg/kg | ED50 ([1]; Table 1, oral, mice): 9.6 mg/kg

c1ccc2c(c1)[C@@H]1C[C@@]3(CN(C4CCCC4)C[C@H]23)c2ccccc21 (relative stereo) [Example 48, 2-Cyclopentyl-2,3,8,12b-tetrahydro-1H-3a,8-methanodibenzo[3,4:6,7]cyclohepta[1,2-c]pyrrole]
ED50 (female white mice; [2]): 36 mg/kg | ED50 (female white mice; [3]): 100 mg/kg | ED50 (female white mice; [4]): 100 mg/kg | ED50 (female white mice; read-out: Ptosis ED50, Table 1): 60 mg/kg | ED50 (female white mice; [5]): 200 mg/kg | ED50 (female white mice; [6]): 60 mg/kg | ED50 (female white mice; [7]): 60 mg/kg | LD50 at 24 h (in vivo): > 324 mg/kg | ED50 (in vivo; Tremors ED50, Table 1, mice): > 324 mg/kg | ED50 ([1]; Table 1, oral, mice): 38 mg/kg

CC(C)N1C[C@@H]2c3ccccc3[C@@H]3C[C@@]2(C1)c1ccccc13 (relative stereo) [Example 49, 2-Isopropyl-2,3,8,12b-tetrahydro-1H-3a, 8-methanodibenzo[3,4:6,7]cyclohepta[1,2-c]pyrrole]
ED50 (female white mice; [2]): 60 mg/kg | ED50 (female white mice; [3]): 60 mg/kg | ED50 (female white mice; [4]): 7 mg/kg | ED50 (female white mice; read-out: Ptosis ED50, Table 1): 12 mg/kg | ED50 (female white mice; [5]): 200 mg/kg | ED50 (female white mice; [6]): 36 mg/kg | ED50 (female white mice; [7]): 20 mg/kg | LD50 at 24 h (in vivo): 200 mg/kg | ED50 (in vivo; Tremors ED50, Table 1, mice): > 324 mg/kg | ED50 ([1]; Table 1, oral, mice): 10.8 mg/kg

c1ccc2c(c1)[C@@H]1C[C@@]3(CN(CC4C5CC6CC(C5)CC4C6)C[C@H]23)c2ccccc21 (relative stereo) [Example 53, 2-(2-Adamantylmethyl)-2,3,8,12b-tetrahydro-1H-3a,8-methanodibenzo[3,4:6,7]cyclohepta[1,2-c]pyrrole]
ED50 (female white mice; [2]): 36 mg/kg | ED50 (female white mice; [3]): 60 mg/kg | ED50 (female white mice; [4]): 100 mg/kg | ED50 (female white mice; read-out: Ptosis ED50, Table 1): 300 mg/kg | ED50 (female white mice; [5]): > 324 mg/kg | ED50 (female white mice; [6]): 300 mg/kg | ED50 (female white mice; [7]): 100 mg/kg | ED50 (in vivo): > 524 mg/kg | LD50 at 24 h (in vivo): > 324 mg/kg | ED50 ([1]; po, Table 1, mice): 94 mg/kg

— US4088772A, “Methanodibenzocycloheptapyrroles” (E. I. Du Pont de Nemours and Company, priority 1975, dated 1978)
